Drawing on ChEMBL document CHEMBL5247636, “Synthesis and antineoplastic activity of ethylene glycol phenyl aminoethyl ether derivatives as FOXM1 inhibitors” (Eur J Med Chem, 2022), this text covers IC50 and Activity for 42 molecules.

Molecules are shown by their SMILES.

Data set [1] has as its system SK-OV-3. In words: cells. The following applies: Homo sapiens.
Description: Antiproliferative activity against human SK-OV-3 cells assessed as inhibition of cell growth measured after 22 to 70 hrs by CCK-8 assay
A further data set deals with HCT-116. Description: cells. The following applies: Homo sapiens.
The subject of a further data set is HepG2. Description: cells. The following applies: Homo sapiens.
Data set [2] has as its system SK-OV-3. In words: cells. The following applies: Homo sapiens, SK-OV-3, 24 h.
Description: Cytotoxicity against human SK-OV-3 cells expressing low FOXM1 assessed as inhibition of cell growth measured after 24 hrs by CCK-8 assay
Data set [3] has as its system SK-OV-3. In words: Cytotoxicity against human SK-OV-3 cells assessed as inhibition of cell growth measured after 24 hrs by CCK-8 assay. Format: toxicity, cell-based. As to conditions: sk-ov-3, 24 h. On the technique in general: Tetrazolium assays rely on reduction of a dye to a coloured formazan, in cell work by metabolically active cells.
The test system of the next data set is A2780. In words: Cytotoxicity against human A2780 cells assessed as inhibition of cell growth measured after 24 hrs by CCK-8 assay. In kind it is toxicity, cell-based. The following applies: a2780, 24 h.
In data set [4] the test system is SK-OV-3. Description: Down regulation of PLK1 expression in human SK-OV-3 cells by Western blotting analysis. Format: functional, cell-based. The following applies: dose 0.1-10 µg/ml. Background: In western blotting, separated proteins are transferred to a membrane and probed.
A short description of data set [5]: Cytotoxicity against human FTE-187 cells assessed as inhibition of cell growth upto 50 uM measured after 24 to 48 hrs by CCK-8 assay. In kind it is toxicity, cell-based. The following applies: fte-187, 50 µM, time 24-48 hrs.
Data set [6] has as its system SK-OV-3. In words: Down regulation of CDC25B expression in human SK-OV-3 cells by Western blotting analysis. In kind it is functional, cell-based. As to conditions: dose 0.1-10 µg/ml.

Description for HCT-116: Antiproliferative activity against human HCT-116 cells assessed as inhibition of cell growth measured after 22 to 70 hrs by CCK-8 assay
Description for HepG2: Antiproliferative activity against human HepG2 cells assessed as inhibition of cell growth measured after 22 to 70 hrs by CCK-8 assay

Consider `O=C(O)c1ccc(COc2ccc(OCCOCCNC3CCCC3)cc2)cc1`, for which, in the data set with SK-OV-3 [1], the half-maximal inhibitory concentration (IC50) (commonly the concentration needed to halve the response being measured) was over 100 µM.

With `c1ccc(COc2ccc(OCCOCCNC3CCOC3)cc2)cc1` (stereo not given), the IC50 with SK-OV-3 [1] is 48 µM.

Molecule `O=[N+]([O-])c1ccccc1COc1ccc(OCCOCCNC2CCCC2)cc1` came in with an IC50 in the data set on SK-OV-3 [1] of 5.37 µM. This IC50 lies about 8.9-fold lower than the previous one.

`COc1cc(OCCOCCNC2CCCC2)ccc1OCc1ccccc1` yielded an IC50 with SK-OV-3 [1] of 44.6 µM.

As to `c1ccc(COc2ccc(OCCOCCNc3cc[nH]c3)cc2)cc1`, the IC50 in the data set with SK-OV-3 [1] turned out to be 11.3 µM. Against the preceding molecule, the IC50 is about 3.9-fold lower.

The molecule `c1ccc2cc(OCCOCCNC3CCCC3)ccc2c1` showed an IC50 in the data set on SK-OV-3 [1] of 40.6 µM.

For the molecule `O=C(O)c1cccc(COc2ccc(OCCOCCNC3CCCC3)cc2)c1`, the IC50 in the data set on SK-OV-3 [1] was over 100 µM.

Regarding `c1ccc(COc2ccc(OCCOCCNC3CCCC3)cc2)cc1`, the concentration for half-maximal inhibition (IC50) in the data set with HCT-116 amounted to 12.9 µM; in the data set on SK-OV-3 [1] it was 24.8 µM; in the data set with HepG2 it was 25.4 µM.

In the data set on SK-OV-3 [1], `c1ccc(COc2ccccc2OCCOCCNC2CCCC2)cc1` showed an IC50 of 40.7 µM. This counts as double-digit micromolar.

The molecule `Nc1cccc(COc2ccc(OCCOCCNC3CCCC3)cc2)c1` showed an IC50 in the data set on SK-OV-3 [1] of 10.8 µM.

For the molecule `Nc1c(C(=O)Nc2ccc(F)cc2)sc2nc(-c3cccs3)cc(C(F)(F)F)c12`, the values for the IC50 in the data set with HCT-116, with SK-OV-3 [1] and in the data set with HepG2 were 86.1 µM, 51.4 µM and 70.5 µM, respectively.

In turn, `COC(=O)c1ccc(COc2ccc(OCCOCCNC3CCCC3)cc2)cc1` came in with an IC50 in the data set with SK-OV-3 [1] of 6.99 µM.

`Cc1ccc(COc2ccc(OCCOCCNC3CCCC3)cc2)cc1`: in the data set on SK-OV-3 [1], inhibition was half-maximal at 17.2 µM (IC50). This IC50 is about 2.5-fold higher than that of the molecule before.

Take `O=[N+]([O-])c1ccccc1COc1ccc(OCCOCCNC2CCCCC2)cc1`: the IC50 in the data set on HCT-116 was 11.1 µM; with SK-OV-3 [1], 2.88 µM; in the data set on HepG2, 25.5 µM.

Regarding `c1ccc(COc2ccc(COc3ccc(OCCOCCNC4CCCC4)cc3)cc2)cc1`, half-maximal inhibition with SK-OV-3 [1] (IC50) was put at 10 µM.

With `c1ncn(-c2ccc(OCCOCCNC3CCCC3)cc2)n1`, the IC50 with SK-OV-3 [1] was over 100 µM.

In the case of `OCCOCCOCCOc1ccc(OCc2ccccc2)cc1`, half-maximal inhibition in the data set on SK-OV-3 [1] (IC50) was put at 59.4 µM.

In turn, `COC(=O)c1cccc(COc2ccc(OCCOCCNC3CCCC3)cc2)c1` displayed an IC50 in the data set on SK-OV-3 [1] of 45.5 µM.

On to `c1cc2c(cc1OCCOCCNC1CCCC1)CCCC2`, for which, in the data set with SK-OV-3 [1], it took 31.9 µM to reach half-maximal inhibition (IC50).

For `Clc1ccc(COc2ccc(OCCOCCNC3CCCCC3)cc2)cc1`, the IC50 with SK-OV-3 [2] is 65.4 µM; in the data set with HCT-116, 2.69 µM; in the data set on SK-OV-3 [1], 2.65 µM; in the data set with HepG2 it was 15.1 µM. The Activity entry in the data set on SK-OV-3 [3] is “Toxic”; in the data set on A2780, “Toxic”; with SK-OV-3 [4] it was “Dose-Dependent Effect”; in data set [5], “Non-Toxic”; in the data set with SK-OV-3 [6], “Dose-Dependent Effect”.

In the case of `c1ccc(COc2ccc(OCCOCCNC3CC3)cc2)cc1`, the IC50 with SK-OV-3 [1] was 47.2 µM. In other words, the double-digit micromolar range.

In the data set with SK-OV-3 [1], `c1ccc(COc2ccc(OCCOCCNc3ccncc3)cc2)cc1` displayed an IC50 of 20.6 µM.

With `CN(C)CCOCCOc1ccc(OCc2ccccc2)cc1`, the IC50 in the data set with SK-OV-3 [1] turned out to be 11.9 µM.

Consider `c1ccc(COc2ccc(COc3ccc(OCCOCCNC4CCCCC4)cc3)cc2)cc1`, for which the IC50 in the data set on HCT-116 worked out at 4.35 µM; with SK-OV-3 [1], 8.08 µM; with HepG2, 18.1 µM.

In the data set with SK-OV-3 [1], `Clc1ccc(COc2ccc(OCCOCCNC3CCCC3)cc2)cc1` displayed an IC50 of 7.67 µM.

Molecule `COc1ccc(OCCOCCNC2CCCC2)cc1` came in with an IC50 with SK-OV-3 [1] of 99.1 µM.

For `c1ccc(COc2ccc(OCCOCCOC3CCCC3)cc2)cc1`, the IC50 with SK-OV-3 [1] was over 100 µM.

Molecule `Nc1ccccc1COc1ccc(OCCOCCNC2CCCC2)cc1` yielded an IC50 in the data set on SK-OV-3 [1] of 14 µM.

`O=C(O)c1ccccc1COc1ccc(OCCOCCNC2CCCC2)cc1` showed a 50% inhibitory concentration (IC50) in the data set on SK-OV-3 [1] of over 100 µM.

With `COC(=O)c1ccc(COc2ccc(OCCOCCNC3CCCCC3)cc2)cc1`, the values for the IC50 with HCT-116, in the data set on SK-OV-3 [1] and in the data set with HepG2 were 5.3 µM, 6.22 µM and 30.3 µM, respectively.

As for `c1ccc(COc2ccc(OCCOCCNC3CCCCC3)cc2)cc1`, in the data set with SK-OV-3 [1], the half-maximal inhibitory concentration (IC50) came to 7.37 µM.

`c1ccc(COc2ccc(OCCOCCNC3CCC3)cc2)cc1`: in the data set on SK-OV-3 [1], half-maximal inhibition (IC50) required 25 µM.

Molecule `CCOc1ccc(OCCOCCNC2CCCC2)cc1` registered an IC50 in the data set on SK-OV-3 [1] of 90.5 µM.

In the data set on SK-OV-3 [1], `COc1ccc(COc2ccc(OCCOCCNC3CCCC3)cc2)cc1` returned a 50% inhibitory concentration (IC50) of 15.7 µM.

On to `COC(=O)c1ccccc1COc1ccc(OCCOCCNC2CCCC2)cc1`, for which, in the data set on SK-OV-3 [1], the IC50 is over 100 µM.

In turn, `O=[N+]([O-])c1ccc(COc2ccc(OCCOCCNC3CCCC3)cc2)cc1` showed an IC50 in the data set on SK-OV-3 [1] of 20.3 µM. In other words, the double-digit micromolar range.

In the data set with SK-OV-3 [1], `c1ccc(COc2ccc(OCCOCCNc3ccccc3)cc2)cc1` displayed an IC50 of over 100 µM.

With `O=[N+]([O-])c1cccc(COc2ccc(OCCOCCNC3CCCC3)cc2)c1`, it took 15.4 µM to reach half-maximal inhibition with SK-OV-3 [1] (IC50). This counts as double-digit micromolar.

With `O=Cc1ccc(COc2ccc(OCCOCCNC3CCCC3)cc2)cc1`, in the data set with SK-OV-3 [1], the IC50 amounted to 45 µM. This IC50 is about 2.9-fold higher than that of the molecule before.

`CC(C)(C)OC(=O)n1ccc(NCCOCCOc2ccc(OCc3ccccc3)cc2)c1`: in the data set with SK-OV-3 [1], the IC50 is 13 µM.

For `Nc1ccc(COc2ccc(OCCOCCNC3CCCC3)cc2)cc1`, the IC50 with SK-OV-3 [1] was determined as 31.7 µM.

In turn, `c1ccc(COc2ccc(OCCOCCNC3CCCCCC3)cc2)cc1` displayed an IC50 in the data set on SK-OV-3 [1] of 7.46 µM. Against the preceding molecule, the IC50 is about 4.2-fold lower.
